Earlier results in patent US20060198888A1, “Tolperisone-containing pharmaceutical preparation with controllable active-substance release for oral administration” (Sanochemia Pharmazeutika AG, priority 2004, published 2006).
Like-named read-outs stand apart in the source and are kept apart here.

Legend:
[1] = JP-A-53-40779
[2] = rat

Row | Compound | pharmacological effect ([1]; listed as d-tolperisone) | extent of in-vivo inversion into R(−) tolperisone [2] | pharmacological effect ([1]; listed as 1-tolperisone) | fraction converted by in-vivo inversion into S(+) tolperisone [2]
1 | Cc1ccc(C(=O)C(C)CN2CCCCC2)cc1 (stereo not drawn) [S(+) tolperisone] | muscle-relaxing effect | up to 20% | – | –
2 | Cc1ccc(C(=O)C(C)CN2CCCCC2)cc1 (stereo not drawn) [R(−) tolperisone] | – | – | vaso- or bronchodilatory effect | up to 20%
